Measured values published in patent US10343974B1, “Cyclohexanol ethers as mediterranean fruit fly attractants” (The United States of America, as Represented by the …, priority 2018, dated 2019).

Experiments:
[1] = test system: Mediterranean fruit flies; test: Field cage bioassay: attraction of male Mediterranean fruit flies to Jackson traps baited with PVC plugs; format: in vivo, Ceratitis capitata; details: grand mean capture ± 2 pooled standard deviations; ~100 mg PVC plug with ~40% compound in Jackson trap; screened field cage, 24-hour period; 150 male flies released per cage; same letter = not significantly different (P >0.05)
Description: Assessment of Biological Properties: Compounds were assessed for the ability to attract Mediterranean fruit flies in an enclosed field cage.
Formulation of compounds on PVC disks: All test compounds were >95% pure by GC-MS, except for (1R*,2R*,5R*)-sec-butyl 5-methoxy-2-methylcyclohexanecarboxylate which was tested as a mixture of diastereomers due to the use of (±)-2-butanol in the formation of the ester, and were formulated as ˜100 mg polymeric plugs containing ˜40% by mass of a compound of Formula (I). A typical protocol dissolved polyvinyl chloride (PVC) (864 mg), dibutyl phthalate (DBP) (432 mg), dioctyl phthalate (DOP) (432 mg), (1R*,2R*,5R*)-ethyl 5-methoxy-2-methylcyclohexanecarboxylate (1) (1.152 g) in THF (8.64 g). The mixture was then pipetted (˜400 mg) into respective porcelain wells. The THF was allowed to evaporate by warming the porcelain plate at 40° C. for 15 minutes, and then standing at room temperature until a constant weigh was achieved, to afford ˜26 PVC-attractant disks with a mass of 104.0±3.4 mg, (x±s).
Bioassays: Compounds were evaluated in screened field cages (3×3×2.5 meters) over a 24-hour period. Each field cage housed a single carousel, centered on the ceiling about 2 meters above the floor of the enclosure, which rotated (˜1 revolution/min) 8 equally-spaced Jackson traps. A polymeric plug containing a test compound was placed in a small basket in each Jackson trap with a sticky insert to record the number of fly catches. Test compounds (6) were screened together with two “standard” attractants, TML (FarmaTech, USA) and (±)-CER-B1 (prepared according to Khrimian, A., et al., Tetrahedron, 59: 5475 (2003)). A typical experiment (1) used 3 cages and began between 9-10 am each day, (2) TML and (±)-CER-B were arranged at two directly opposing poles of the carousel with 6 test compounds (3 on each side of TML and (±)-CER-B1) randomly placed relative to the standards, (3) 6 randomly-selected patterns were tested over a 2-day period, with the same sequence of patterns repeated three times (days 1 & 2, days 3 & 4, and days 5 & 6) for a total of 3 replicates, (4) each 2-day period (days 1 & 2, days 3 & 4, and days 5 & 6) used a different cohort of 7-8 day old laboratory reared male Mediterranean fruit flies (n=3), and (5) 150 male Mediterranean fruit flies were released each morning per 24-h cage bioassay for a total of 900 flies per cohort and 2700 flies during the entire testing period. A fresh lure was used for each cage experiment (n=18). Mean fly catch numbers are depicted in the table below.
For each cohort, a single-factor ANOVAs was applied to test the null hypothesis that the mean capture of a particular lure across both days (six trials total, three each day) could be used to estimate attraction. […] An additional single-factor ANOVAs was applied to test the null hypothesis that the grand mean capture of a particular lure could be used to estimate attraction, independent of the cohort. Again, none of the lure-respective ANOVAs were significant, a result that provided evidence to support congruence in the biological response across all cages, days, and cohorts. Also depicted in the table below, the grand mean capture ±2 pooled standard deviations (2 spooled) (Skoog, D. and Leary, J., Principles of Instrumental Analysis, John Wiley & Sons, Eds: New York, 1992). In general, the most attractive compounds in the above bioassay captured a similar (statistically equivalent) or greater number of flies relative to trimedlure.

[2] = test system: male medfly; details: classification in the literature; cited from earlier work
[3] = DeMilo 1992; cited from earlier work

Compound | Mean Catch per replicate [1] | attractant strength for male medfly [2] | stability in formulations and the environment [3]
CCOC(=O)[C@@H]1C[C@H](I)CC[C@H]1C (relative stereo) [Ceralure-B1, (1R*,2R*,5R*)-ethyl 5-iodo-2-methylcyclohexanecarboxylate, reference compound] | 94.0 ± 10.7 days |  | 
CCC(C)OC(=O)[C@@H]1C[C@H](OC)CC[C@H]1C (relative stereo) [(1R*,2R*,5R*)-sec-butyl 5-methoxy-2-methylcyclohexanecarboxylate] | 13.7 ± 3.0c |  | 
CCCOC(=O)[C@@H]1C[C@H](OC)CC[C@H]1C (relative stereo) [(1R*,2R*,5R*)-propyl 5-methoxy-2-methylcyclohexanecarboxylate] | 38.0 ± 9.7b |  | 
CO[C@@H]1CC[C@@H](C)[C@H](C(=O)OC(C)(C)C)C1 (relative stereo) [(1R*,2R*,5R*)-tert-butyl 5-methoxy-2-methylcyclohexanecarboxylate] | 9.0 ± 2.8c |  | 
tert-butyl 4- (and 5)-chloro-2-methylcyclohexanecarboxylate [Trimedlure, reference compound] | 82.7 ± 11.3 days | weak attractant | 
ethyl esters of 4 (and 5)-iodo-2-methylcyclohexane-1-carboxylate [CER] |  |  | unstable
CCOC(=O)[C@@H]1C[C@H](OC)CC[C@H]1C (relative stereo) [(1R*,2R*,5R*)-ethyl 5-methoxy-2-methylcyclohexanecarboxylate] | 91.0 ± 9.8 days |  | 
CO[C@@H]1CC[C@@H](C)[C@H](C(=O)OC(C)C)C1 (relative stereo) [(1R*,2R*,5R*)-isopropyl 5-methoxy-2-methylcyclohexanecarboxylate] | 64.7 ± 10.2a |  | 
CO[C@@H]1CC[C@@H](C)[C@H](C(=O)OCC(F)(F)F)C1 (relative stereo) [(1R*,2R*,5R*)-2,2,2-trifluoroethyl 5-methoxy-2-methylcyclohexanecarboxylate] | 94.0 ± 11.5 days |  | 
